From PubChem BioAssay AID1963871 (Molecular Pharmacology Branch, DTP, NCI, 2024)

System: KRAS-mutant PDC multicell tumor spheroid viability
Assay: Anticancer human tumor 521955-158-R2-J5-PDC patient-derived pancreatic carcinoma cell line growth inhibition [KRAS2]
Conditions: for viability, T/C: stronger effect = lower value
In short: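 Combination screen of spheroid viability in tumor-cell co-cultures with endothelial (HUVEC) and mesenchymal stem cell stroma. Each agent was tested in half-log dilutions, topping at clinical Cmax or at 10 microM without a known Cmax.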

[1] = curve of first compound, second compound 0.1 µM
[2] = curve of first compound, second compound 0.316 µM
[3] = curve of first compound, second compound 1 µM
[4] = curve of first compound, second compound 3.16 µM
[5] = second compound 0.1 µM, first compound 0.0316 µM
[6] = second compound 0.1 µM, first compound 0.1 µM
[7] = second compound 0.1 µM, first compound 0.316 µM
[8] = second compound 0.1 µM, first compound 1 µM
[9] = second compound 0.1 µM, first compound 3.16 µM
[10] = second compound 0.1 µM, first compound 10 µM
[11] = second compound 0.316 µM, first compound 0.0316 µM
[12] = second compound 0.316 µM, first compound 0.1 µM
[13] = second compound 0.316 µM, first compound 0.316 µM
[14] = second compound 0.316 µM, first compound 1 µM
[15] = second compound 0.316 µM, first compound 3.16 µM
[16] = second compound 0.316 µM, first compound 10 µM
[17] = second compound 1 µM, first compound 0.0316 µM
[18] = second compound 1 µM, first compound 0.1 µM
[19] = second compound 1 µM, first compound 0.316 µM
[20] = second compound 1 µM, first compound 1 µM
[21] = second compound 1 µM, first compound 3.16 µM
[22] = second compound 1 µM, first compound 10 µM
[23] = second compound 3.16 µM, first compound 0.0316 µM
[24] = second compound 3.16 µM, first compound 0.1 µM
[25] = second compound 3.16 µM, first compound 0.316 µM
[26] = second compound 3.16 µM, first compound 1 µM
[27] = second compound 3.16 µM, first compound 3.16 µM
[28] = second compound 3.16 µM, first compound 10 µM
[29] = curve of first compound, second compound 10 µM
[30] = second compound 10 µM, first compound 0.0316 µM
[31] = second compound 10 µM, first compound 0.1 µM
[32] = second compound 10 µM, first compound 0.316 µM
[33] = second compound 10 µM, first compound 1 µM
[34] = second compound 10 µM, first compound 3.16 µM
[35] = second compound 10 µM, first compound 10 µM
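Note: viability read after seven days of drug exposure.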

Row | Structure (SMILES) | IC50 [1] [µM] | IC50 [2] [µM] | IC50 [3] [µM] | IC50 [4] [µM] | viability, T/C [5] [%] | viability, T/C [6] [%] | viability, T/C [7] [%] | viability, T/C [8] [%] | viability, T/C [9] [%] | viability, T/C [10] [%] | viability, T/C [11] [%] | viability, T/C [12] [%] | viability, T/C [13] [%] | viability, T/C [14] [%] | viability, T/C [15] [%] | viability, T/C [16] [%] | viability, T/C [17] [%] | viability, T/C [18] [%] | viability, T/C [19] [%] | viability, T/C [20] [%] | also measured
1 | CC1OCC2(CCN(c3cnc(Sc4ccnc(N)c4Cl)c(N)n3)CC2)C1N (stereo not given) + C=CC(=O)N1CCN(c2nc(OCC3CCCN3C)nc3c2CCN(c2cccc4cccc(C)c24)C3)CC1CC#N | > 10 | > 10 | > 10 | < 0.0316 | 99.8 | 88.1 | 74.5 | 68.6 | 63.3 | 66.6 | 84.5 | 84.4 | 65.4 | 59.2 | 65.9 | 58.4 | 84.8 | 70.7 | 59.2 | 56.9 | IC50 (curve of first compound, second compound 0.0316 µM): > 10 µM; viability, T/C (second compound 0.0316 µM, first compound 0.0316 µM): 92.9%; viability, T/C (second compound 0.0316 µM, first compound 0.1 µM): 79%; viability, T/C (second compound 0.0316 µM, first compound 0.316 µM): 75.2%; viability, T/C (second compound 0.0316 µM, first compound 1 µM): 63.5%; viability, T/C (second compound 0.0316 µM, first compound 3.16 µM): 60%; viability, T/C (second compound 0.0316 µM, first compound 10 µM): 70.8%; viability, T/C [21]: 57.4%; viability, T/C [22]: 55.5%; viability, T/C [23]: 15.1%; viability, T/C [24]: 13.1%; viability, T/C [25]: 15.4%; viability, T/C [26]: 13%; viability, T/C [27]: 5.45%; viability, T/C [28]: 5.43%
2 | CC1(C)CCC(CN2CCN(c3ccc(C(=O)NS(=O)(=O)c4ccc(NCC5CCOCC5)c([N+](=O)[O-])c4)c(Oc4cnc5[nH]ccc5c4)c3)CC2)=C(c2ccc(Cl)cc2)C1 + CNCc1ccccc1-c1csc(C(C)Nc2nc(C)nc3cc(OC)c(OC)cc23)c1 | 6.16 | 5.21 | 4.13 | < 0.0316 | 98.8 | 98.8 | 97.2 | 102 | 104 | 13.4 | 90.2 | 94.1 | 93.4 | 89.2 | 80.8 | 9.94 | 91.1 | 104 | 103 | 84.5 | IC50 [29]: < 0.0316 µM; viability, T/C [21]: 64.2%; viability, T/C [22]: 5.98%; viability, T/C [23]: 0.76%; viability, T/C [24]: 3.72%; viability, T/C [25]: 43.5%; viability, T/C [26]: 1.04%; viability, T/C [27]: 1.54%; viability, T/C [28]: 0.73%; viability, T/C [30]: 0.3%; viability, T/C [31]: 0.27%; viability, T/C [32]: 0.23%; viability, T/C [33]: 0.22%; viability, T/C [34]: 0.67%; viability, T/C [35]: 0.32%
3 | C=CC(=O)N1CCN(c2nc(=O)n(-c3c(C)ccnc3C(C)C)c3nc(-c4c(O)cccc4F)c(F)cc23)C(C)C1 (stereo not given) |  |  |  |  |  |  |  |  |  |  |  |  |  |  |  |  |  |  |  |  | viability, T/C (compound 0.1 µM): 105% [middle of 17 runs]; viability, T/C (compound 10 µM): 66.7% [middle of 17 runs]; IC50 (compound alone, run of 08/19/2021): > 10 µM; IC50 (compound alone, run of 08/26/2021): > 10 µM; IC50 (compound alone, run of 09/02/2021): > 10 µM
4 | COC(=O)c1ccc2c(C(=Nc3ccc(N(C)C(=O)CN4CCN(C)CC4)cc3)c3ccccc3)c(O)[nH]c2c1 + CC1OCC2(CCN(c3cnc(Sc4ccnc(N)c4Cl)c(N)n3)CC2)C1N | 2.49 | 1.8 | 1.07 | 1.08 | 79.4 | 80.7 | 72.9 | 80.8 | 42.5 | 0.38 | 66.3 | 70.5 | 60 | 85.4 | 30.1 | 0.37 | 46.8 | 46.7 | 55.9 | 57 | IC50 [29]: 1.12 µM; viability, T/C [21]: 26.6%; viability, T/C [22]: 0.4%; viability, T/C [23]: 56%; viability, T/C [24]: 58.6%; viability, T/C [25]: 58%; viability, T/C [26]: 51.7%; viability, T/C [27]: 23.2%; viability, T/C [28]: 0.51%; viability, T/C [30]: 61.1%; viability, T/C [31]: 58.3%; viability, T/C [32]: 64.3%; viability, T/C [33]: 55.4%; viability, T/C [34]: 0.64%; viability, T/C [35]: 0.38%
